Results: patent US11191820B2, “Method for inducing early T memory response with short peptides anti-tumor vaccine” (OSE IMMUNOTHERAPEUTICS, priority 2015, dated 2021)
Marks after values point to notes of the source that are not given here.

Legend:
Format in all cases: in vivo, human
central memory T cells [1] = experiment: Cultured IFN-γ ELISPOT after 10-day in vitro stimulation of PBMC, phase 1/2 colon cancer trial of OSE-2101; parameters: key to net SFC of vaccine positive CTL responses: —, indicates SFC response did not meet criteria and vaccine response was negative; conditions: for Mean SFC: 10 colon patients
Protocol: (§1) Clinical study design. Both trials were designed as phase 1/2, open label, multi-center, single dose, multiple administration studies to evaluate the safety and immunogenicity of the OSE-2101 immunotherapy. Patients were treated with 1 ml OSE-2101 every 3 weeks for a total of six doses. Each dose was administered subcutaneously in the same vicinity in the deltoid or upper thigh region, or at a contralateral site if local side-effects were observed. The study duration for each completed patient was 18 weeks. Clinical responses or patient survival were not measured in either phase 1/2 studies.
(§2) Clinical sample processing. Blood or leukapheresis product was obtained from patients at the pre-treatment, the Week 9 and Week 18 time points, 3 weeks after the third and sixth dose of OSE-2101 respectively. Peripheral blood mononuclear cells (PBMC) were isolated from samples within 24 hours of collection using a FICOLL-PAQUE density gradient and cryopreserved in containers designed to ensure optimal freezing (Mr. Frosty, Nalgene). For use, cells were rapidly thawed at 37° C. then transferred to human AB serum-containing medium for work-up.
(§3) Measurement of central T memory cells responses and T effector memory cells. The CTL responses in 16 total patients (10 colon and six NSCLC) were monitored for CTL responses against each epitope and against the wild-type epitope of epitopes analogs. For each patient, the pre-treatment, Week 9 and Week 18 time points were batch-tested in the same experiment to allow pre- versus post-treatment response comparison in the same experiment. Central T memory cells responses were measured using an IFN-γ enzyme-linked immunospot (cultured ELISPOT) assay following in vitro stimulation of PBMC for 10 days with each vaccine epitope. Briefly, PBMC from each time point were stimulated on day 0 with 10 μg/ml of each epitope individually in replicate in 48-well culture plates (2×10^6 PBMC/well). All cultures were fed with rIL-2 (Endogen, Woburn, Mass.; 10 U/ml final concentration) on days 1, 4 and 7. Ten days after initiation of culture, cells were harvested and tested for activity against specific vaccine peptides and corresponding wild-type peptides of vaccine analogs in the T memory ELISPOT assay. Cells were tested in Millipore IP 96-well plates pre-coated with mouse anti-human IFN-γ antibody (Mabtech USA, Cincinnati, Ohio). Five×10^4 cells and 1.25×10^4 cells from each culture were plated in triplicate wells together with 10^5 irradiated autologous PBMC and 10 μg/ml peptide. As a control, CTL were also tested against an irrelevant HLA-A2.1-binding HBV peptide. After 20 hours incubation, T memory ELISPOT plates were developed by performing sequential incubations with biotinylated anti-human IFN-γ antibody (Mabtech USA), Avidin-Peroxidase Complex (APC, Vector Laboratories, Burlingame, Calif.), and 3-amino-9-ethyl carbazole (AEC) substrate (Sigma Aldrich, St. Louis, Mo.). Spot-forming cells (SFC) were enumerated using a computer-assisted image analysis system (Zeiss KS ELISPOT Reader, Carl Zeiss MicroImaging, Thornwood, N.J.). Data is reported as the net SFC per 5×10^4 cells after subtracting spots induced with the irrelevant HBV peptide.

central memory T cells [2] = experiment: Cultured IFN-γ ELISPOT after 10-day in vitro stimulation of PBMC, phase 1/2 NSCLC trial of OSE-2101; parameters: key to net SFC of vaccine positive CTL responses: —, indicates SFC response did not meet criteria and vaccine response was negative
Protocol: as §1, §2, §3

central memory T cells [3] = experiment: Central memory T cell cultured ELISPOT, phase 2 trial in advanced NSCLC
Protocol: CTL Immune responses measured though cultured Elispot. The immunogenicity was measured in Phase 2 clinical trial on cryopreserved PBMC from each test sample were thawed in 5% human culture medium (RPMI-1640 medium with 25 mM HEPES, supplemented with 5% human AB serum, 4 mM L-glutamine, 0.5 mM sodium pyruvate, 0.1 mM MEM non-essential amino acids, 100 μg/ml streptomycin, and 100 U/ml penicillin) containing 30 μg/ml DNAase. After centrifugation for 5 minutes at 1200 rpm, the cell pellets were resuspended in 5% human culture medium and washed 2 times. For the central Memory T cell cultured ELISPOT assay, 2×10^6/ml PBMC were placed in replicate wells in a 48-well plates and stimulated for 10 days with 10 μg/ml of each peptide. As a positive control, PBMC were also stimulated with a pool of recall viral peptides. Human rIL2 (10 U/ml) was added to the peptide-stimulated cultures at day 1, day 4 and day 7. After 10 days the stimulated cells were harvested and plated at a concentration of 5×10^4/well. Assay wells also received irradiated autologous PBMC (1×10^5/well) and 10 μg/ml peptide, either the vaccine peptide, irrelevant peptide or positive control peptides. Cells stimulated in vitro with each analog epitope were also tested against the corresponding wild-type epitope.
Data analysis and acceptance criteria. Mean and standard deviation (SD) of spots in replicate wells were calculated in all assays by transferring raw ELISPOT data from each experiment to an Excel-based computer program. Positive vaccine-induced T-cell responses were determined according to the criteria described below.
Acceptance Criteria for peptide-Induced specific T-cell response through central memory T cells: The positive criteria for CTL responses used in the phase 2 trial was identical to the criteria in the phase 1/2 trials which was established prospectively after analyzing the variability of pre-treatment responses in patients against each vaccine epitope and the irrelevant HBV control epitope. A positive peptide-induced CTL/T memory response to a given epitope met all of the following conditions: 1) was greater than 5 SFC above the irrelevant epitope response, 2) was greater than the mean SFC of the irrelevant epitope response, plus 2 SD, and 3) was two-fold greater than the SFC response in the pre-vaccination sample from the same patient, plus 2 SD. The inclusion of “plus two standard deviations” was used to accommodate the assay variability and served to increase the criteria stringency.

LLTFWNPPV [CEA.24V9 A]
Mean SFC (central memory T cells [1]; Week 9): 86.5 SFC per 50,000 cells | Mean SFC (central memory T cells [1]; Week 18): 172.0 SFC per 50,000 cells | net SFC of vaccine positive CTL responses (central memory T cells [1]; colon patient 551, Week 9): 42.7^d) SFC per 50,000 cells | net SFC of vaccine positive CTL responses (central memory T cells [1]; colon patient 551, Week 18): — | net SFC of vaccine positive CTL responses (central memory T cells [1]; colon patient 601, Week 9): 118.0 SFC per 50,000 cells | net SFC of vaccine positive CTL responses (central memory T cells [1]; colon patient 601, Week 18): 96.0 SFC per 50,000 cells | net SFC of vaccine positive CTL responses (central memory T cells [1]; colon patient 602, Week 9): — | net SFC of vaccine positive CTL responses (central memory T cells [1]; colon patient 602, Week 18): — | net SFC of vaccine positive CTL responses (central memory T cells [1]; colon patient 603, Week 9): 63.0 SFC per 50,000 cells | net SFC of vaccine positive CTL responses (central memory T cells [1]; colon patient 603, Week 18): 20.7 SFC per 50,000 cells | net SFC of vaccine positive CTL responses (central memory T cells [1]; colon patient 604, Week 9): 55.3 SFC per 50,000 cells | net SFC of vaccine positive CTL responses (central memory T cells [1]; colon patient 604, Week 18): 187.0 SFC per 50,000 cells | net SFC of vaccine positive CTL responses (central memory T cells [1]; colon patient 605, Week 9): 43.7 SFC per 50,000 cells | net SFC of vaccine positive CTL responses (central memory T cells [1]; colon patient 605, Week 18): 109.7 SFC per 50,000 cells | net SFC of vaccine positive CTL responses (central memory T cells [1]; colon patient 606, Week 9): — | net SFC of vaccine positive CTL responses (central memory T cells [1]; colon patient 606, Week 18): — | net SFC of vaccine positive CTL responses (central memory T cells [1]; colon patient 607, Week 9): 196.7 SFC per 50,000 cells | net SFC of vaccine positive CTL responses (central memory T cells [1]; colon patient 607, Week 18): 586.7 SFC per 50,000 cells | net SFC of vaccine positive CTL responses (central memory T cells [1]; colon patient 608, Week 9): — | net SFC of vaccine positive CTL responses (central memory T cells [1]; colon patient 608, Week 18): — | net SFC of vaccine positive CTL responses (central memory T cells [1]; colon patient 609, Week 9): — | net SFC of vaccine positive CTL responses (central memory T cells [1]; colon patient 609, Week 18): 31.7 SFC per 50,000 cells | No. Positive Responses (central memory T cells [2]; 6 NSCLC patients, Week 9): 0 | Mean SFC (central memory T cells [2]; 6 NSCLC patients, Week 18): 34.3 SFC per 50,000 cells | No. Positive Responses (central memory T cells [2]; 6 NSCLC patients, Week 18): 2 | net SFC of vaccine positive CTL responses (central memory T cells [2]; NSCLC patient 201, Week 9): — | net SFC of vaccine positive CTL responses (central memory T cells [2]; NSCLC patient 201, Week 18): — | net SFC of vaccine positive CTL responses (central memory T cells [2]; NSCLC patient 502, Week 9): — | net SFC of vaccine positive CTL responses (central memory T cells [2]; NSCLC patient 502, Week 18): — | net SFC of vaccine positive CTL responses (central memory T cells [2]; NSCLC patient 504, Week 9): — | net SFC of vaccine positive CTL responses (central memory T cells [2]; NSCLC patient 504, Week 18): 25.3^d) SFC per 50,000 cells | net SFC of vaccine positive CTL responses (central memory T cells [2]; NSCLC patient 505, Week 9): — | net SFC of vaccine positive CTL responses (central memory T cells [2]; NSCLC patient 505, Week 18): — | net SFC of vaccine positive CTL responses (central memory T cells [2]; NSCLC patient 532, Week 9): — | net SFC of vaccine positive CTL responses (central memory T cells [2]; NSCLC patient 532, Week 18): 43.3 SFC per 50,000 cells | net SFC of vaccine positive CTL responses (central memory T cells [2]; NSCLC patient 651, Week 9): — | net SFC of vaccine positive CTL responses (central memory T cells [2]; NSCLC patient 651, Week 18): — | % of patients with positive CTL/central memory T cell response (central memory T cells [3]; phase 2, month 9): 57% | patients with positive CTL/central memory T cell response / patients tested (central memory T cells [3]; phase 2, month 9): 4/7 | % of patients with positive CTL/central memory T cell response (central memory T cells [3]; phase 2, month 12): 50% | patients with positive CTL/central memory T cell response / patients tested (central memory T cells [3]; phase 2, month 12): 2/4 | % of patients with positive CTL/central memory T cell response (central memory T cells [3]; phase 2, week 9): 39% | patients with positive CTL/central memory T cell response / patients tested (central memory T cells [3]; phase 2, week 9): 13/33 | % of patients with positive CTL/central memory T cell response (central memory T cells [3]; phase 2, week 18): 31% | patients with positive CTL/central memory T cell response / patients tested (central memory T cells [3]; phase 2, week 18): 10/32 | % of patients with positive CTL/central memory T cell response (central memory T cells [3]; phase 2, week 30): 28% | patients with positive CTL/central memory T cell response / patients tested (central memory T cells [3]; phase 2, week 30): 9/23

RLLQETELV [HER2-689-WT]
% of patients with positive CTL/central memory T cell response (central memory T cells [3]; phase 2, month 9): 0% | patients with positive CTL/central memory T cell response / patients tested (central memory T cells [3]; phase 2, month 9): 0/7 | % of patients with positive CTL/central memory T cell response (central memory T cells [3]; phase 2, month 12): 0% | patients with positive CTL/central memory T cell response / patients tested (central memory T cells [3]; phase 2, month 12): 0/4 | % of patients with positive CTL/central memory T cell response (central memory T cells [3]; phase 2, week 9): 36% | patients with positive CTL/central memory T cell response / patients tested (central memory T cells [3]; phase 2, week 9): 4/11 | % of patients with positive CTL/central memory T cell response (central memory T cells [3]; phase 2, week 18): 27% | patients with positive CTL/central memory T cell response / patients tested (central memory T cells [3]; phase 2, week 18): 3/11 | % of patients with positive CTL/central memory T cell response (central memory T cells [3]; phase 2, week 30): 0% | patients with positive CTL/central memory T cell response / patients tested (central memory T cells [3]; phase 2, week 30): 0/6
